Data on two molecules can be found in publication PMC11603275, “Synthesis and Antimicrobial Evaluation of New 1,2,4-Triazolo[1,5-a]pyrimidine-Based Derivatives as Dual Inhibitors of Bacterial DNA Gyrase and DHFR” (ACS Omega, 2024).

≈ marks a conversion by molar mass, not a printed value. Read-outs that look alike come from different tables or passages of the source.

The subject of assay [1] is P. aeruginosa. Nature of the assay: Modified disk diffusion, inhibition zone. Conditions: P. aeruginosa (G-).
Assay [2] relates to E. coli. Nature of the assay: Modified disk diffusion, inhibition zone. Particulars: E. coli (G-).
Another assay concerns tested bacteria. Nature of the assay: MIC summarised over the tested bacteria (abstract). Format: cell-based. Conditions: read-out: MIC values. The method, then: (§1) The outcomes of this in vitro assay test align with the results of the antimicrobial sensitivity test.
(§2) In 96-well microtiter plates and […] of fresh bacterial culture of a single McFarland unit overnight, a double serial dilution of each compound […] in sterile standard saline were prepared to every single source well. […] The plates were incubated at 37 °C overnight. As an indicator of bacterial growth, […] of p-iodonitrotetrazolium violet (INT) was added to each well and incubated at 37 °C for 30 min. […] The colorless tetrazolidium salt acts as an electron accepter and is reduced to a red colored formazan product by biological activity organisms. Where bacterial growth was inhibited, the solution in the well remained clear after incubation with INT.

Assay [3] deals with E. coli. Nature of the assay: MIC assay, 2-fold serial dilution in 96-well microtiter plate. The assay is classed as cell-based, Escherichia coli (ATCC 11775). Particulars: Escherichia coli, read-out: MIC. As for the experimental part:
as §1
(§3) Appendix A (Supplementary File) provides experimental details.
as §2

Assay [4] relates to Gram-positive and Gram-negative bacteria (B. subtilis, S. aureus, E. coli, P. aeruginosa). The assay can be described thus: Disk diffusion, inhibition zones summarised over the tested bacterial strains. Particulars: over the four tested bacterial strains. (In agar diffusion tests the substance spreads into inoculated agar from a disc or well.)
Assay [5] has as its system P. aeruginosa. Nature of the assay: Minimum bactericidal concentration (MBC) assay. Format: cell-based, Pseudomonas aeuroginosa. From the text:
(§4) The MBC differs from the MIC. […] Unlike the MBC, which leads to mortality, the MIC hinders bacterial growth without causing death.[41] The common expression for MBC is MBC50, signifying the antibiotic concentration that eliminates 50% of the initial bacterial population.[42]

Assay [6] deals with B. subtilis. The assay can be described thus: MIC assay, 2-fold serial dilution in 96-well microtiter plate. The assay is classed as cell-based, Bacillus subtilis (ATCC 6051). As for the experimental part:
as §1, §3, §2

The test system of assay [7] is P. aeruginosa. Described as above. The assay is classed as cell-based, Pseudomonas aeuroginosa (ATCC 10145). The method, then: as §1, §3, §2
Assay [8] concerns B. subtilis. Nature of the assay: Minimum bactericidal concentration (MBC) assay. Format: cell-based, Bacillus subtilis.
From the text: as §4

The test system of assay [9] is B. subtilis. The assay can be described thus: Modified disk diffusion, inhibition zone. Particulars: B. subtilis (G+).
Assay [10] has as its system S. aureus. Nature of the assay: Minimum bactericidal concentration (MBC) assay. The assay is classed as cell-based, Staphylococcus aureus.
From the text: as §4

Assay [11] has as its system E. coli. Nature of the assay: Minimum bactericidal concentration (MBC) assay. Format: cell-based, Escherichia coli.
From the text: as §4

The test system of a further assay is Gram-positive bacteria. Nature of the assay: MBC summarised over Gram-positive bacteria. The assay is classed as cell-based.
From the text: as §4

For assay [12], the system named is S. aureus. Nature of the assay: MIC assay, 2-fold serial dilution in 96-well microtiter plate. Format: cell-based, Staphylococcus aureus (ATCC 12600). Particulars: Staphylococcus aureus, read-out: MIC. The method, then:
as §1, §3, §2

In another assay the target is DNA gyrase. Set-up: method as in PMID 31711767. Conditions: cited from earlier work.

For `O=C(O)c1cn(C2CC2)c2cc(N3CCNCC3)c(F)cc2c1=O` [Ciprofloxacin, reference compound], the “Inhibition Zone (IZ) Diameter” value in the assay with P. aeruginosa [1] was 40 mm/mL; in the assay with E. coli [2], 40 mm/mL; in assay [4], 40 mm; with B. subtilis [9], 40 mm/mL. Moreover, the MIC with tested bacteria is 10 to 90 µM (≈ 3.31 to 29.8 µg/mL); in the assay on E. coli [3], 0.06 ± 0.004 µM (≈ 0.0199 µg/mL); against B. subtilis [6] it was 0.01 ± 0.001 µM (≈ 0.00331 µg/mL); in the assay with B. subtilis [6] (Bacillus subtilis, read-out: MIC), 0.01 µM (≈ 0.00331 µg/mL); in the assay on P. aeruginosa [7], 0.06 ± 0.005 µM (≈ 0.0199 µg/mL); in the assay with P. aeruginosa [7] (Pseudomonas aeruginosa, read-out: MIC), 0.06 µM (≈ 0.0199 µg/mL). For the same molecule, in the assay with S. aureus [12], the MIC came out at 0.03 ± 0.002 µM (≈ 0.00994 µg/mL). The MBC against P. aeruginosa [5] worked out at 0.09 ± 0.006 µM (≈ 0.0298 µg/mL); in the assay with P. aeruginosa [5] (Pseudomonas aeruginosa, read-out: MBC), 0.09 µM (≈ 0.0298 µg/mL); against B. subtilis [8] it was 0.019 ± 0.001 µM (≈ 0.0063 µg/mL); with B. subtilis [8] (Bacillus subtilis, read-out: MBC) it was 0.019 µM (≈ 0.0063 µg/mL); in the assay on S. aureus [10] it was 0.045 ± 0.002 µM (≈ 0.0149 µg/mL); in the assay with S. aureus [10] (Staphylococcus aureus, read-out: MBC), 0.046 µM (≈ 0.0152 µg/mL). Moreover, the MBC in the assay on E. coli [11] was 0.09 ± 0.006 µM (≈ 0.0298 µg/mL); in the assay on E. coli [11] (Escherichia coli, read-out: MBC) it was 0.09 µM (≈ 0.0298 µg/mL); against Gram-positive bacteria, 0.019 to 0.045 µM (≈ 0.0063 to 0.0149 µg/mL).
As to `O=C(NNC(=O)c1c[nH]c2ncnn2c1=O)c1ccccc1` [Compound IV], the IC50 at DNA gyrase was 680 nM.

Usually MIC stands for the smallest concentration in the dilution series that meets the test's criterion for growth inhibition. What is called MBC is the lowest tested concentration that kills the bacteria rather than only halting them. The IC50 is the concentration that gives 50% inhibition.
